The source of these data is patent EP2815749A1, “Solid form of 4-amino-2-(2,6-dioxopiperidine-3-yl)isoindoline-1,3-dione having specified X-ray diffraction pattern” (IP Gesellschaft für Management mbH, priority 2013, dated 2014).

Data set [1] can be described thus: Desolvation of solvate forms of Compound (VII). The class given is physicochemical. On the procedure: Polymorph screening: A polymorph screen was conducted in the methylethyl ketone (MEK)/ water solvent systems, as well as in the acetonitrile (ACN), ACN/water and isopropyl acetate solvent systems. Polymorph screening techniques included crash cooling, solvent evaporation, antisolvent addition, and slurry experiments. Slurry experiments were performed on an IKA RCT hot plate with magnetic stirring set to 710 rpm. The temperature was controlled with an IKA ETS-D5 thermocouple. Solvent volumes were measured and transferred with Gibson Pipetteman volumetric pipettes. New forms that were identified as solvates were subjected to desolvation under two potential conditions: (1) drying in a vacuum oven at 40°C and (2) sitting undisturbed under ambient conditions in a fume hood. Physical characterization of all forms proceeded by X-ray powder diffraction (XRPD) and thermogravimetric analysis (TGA).
Experiment 6: Desolvation: New forms of Compound (VII) obtained in the polymorph screen suspected of being solvates were subjected to further form investigation through attempted desolvation. Forms D, E, F, G, H, I, J, K, L and Hydrate A were left to stand open to the atmosphere under ambient conditions and or were placed in a vacuum oven. […] Forms D and K produced new crystalline XRPD patterns following desolvation. […] In some embodiments, Form R ({drug7p}) is characterized by one or more peaks in an XRPD spectrum selected from the peaks listed in Table 20. Form R ({drug7p}) Peak List:
In some embodiments, Form S ({drug7q}) is characterized by one or more peaks in an XRPDspectrum selected from the peaks listed in Table 21.

Data set [2] is described as follows: Salt screening and crystalline salt characterization of Compound (VI). As to conditions: for Hygroscopicity: ambient temperature and relative humidity conditions.
Description: The screening examined acid type, acid level (equivalents), and/or type of crystallization solvent. Each plate contained 96 well plates (8 rows of 12 columns per plate). […] The solution (12.5 mL) was transferred to 24 vials. To each vial was added 0.25 M EtOH stock solutions of the following acids:
The content of each vial was transferred to 12 crystallization wells and evaporated to dryness. Upon evaporation, each well was charged with 100 µl of solvent using a robotic liquid handler. The following crystallization solvents were tested: methyl isobutyl ketone (MIBK), ethyl acetate, toluene, THF, acetonitrile, acetone, isopropanol, ethanol, methanol, 1,2-dichloroethylene, isopropanol/water (50:50), and water. Next, the plates were sealed with Teflon septa and subjected to temperature cycling. […] After the heating/cooling cycle, the contents of the wells were characterized by birefringent imaging. Perceived crystalline hits were further characterized by PXRD analysis.
Data set [3] can be described thus: Equilibration and form conversion experiments of Compound of formula (V). The class given is physicochemical.
The nature of data set [4]: Hygroscopicity of forms of Compound of formula (V) (DVS). In kind it is physicochemical. As to conditions: between 0% and 90% relative humidity; 25°C. The method, then:
Differential Scanning Calorimetry (DSC): DSC analyses were performed on a TA instrument Q2000 Differential Scanning Calorimeter. Indium was used as the calibration standard. Approximately 2-5 mg of sample was placed into a DSC pan. The sample was heated under nitrogen at a rate of 10°C/min, up to a final temperature of 350°C. Melting points were reported as the extrapolated onset temperatures. Thermogravimetric Analysis (TGA): TGA analyses were performed on a TA instrument Q5000 Thermogravimetric Analyzer. Calcium oxalate was used for a performance check. Approximately 2-10 mg of accurately weighed sample was placed on a pan and loaded into the TGA furnace. The sample was heated under nitrogen at a rate of 10°C/min, up to a final temperature of 300°C. Attenuated Total Reflection Fourier-Transform Infrared Analysis (ATR-FTIR): FTIR analyses were performed on the samples "as is" using an attenuated total reflection (ATR) attachment on a Nicolet 6700 FTIR spectrometer. After a background of ambient lab conditions was obtained, samples were placed on the ATR, compressed with the anvil, and spectrum acquired. Miniature Scanning Electron Microscope (Mini SEM) Morphology analysis of the samples was carried out on an Even Mini SEM. Small amounts of samples were dispersed on a sample holder, and then coating with gold viewed with 200x and 1000x magnification. Dynamic Vapor Sorption (DVS) Hygroscopicity was determined on a Surface Measurement Systems DVS. Typically a sample size of 5-30 mg was loaded into the DVS instrument sample pan and the sample was analyzed on a DVS automated sorption analyzer at 25°C. The relative humidity was increased from 0 % to 90 %RH at 10 %RH step. The relative humidity was then decreased in a similar manner to accomplish a full adsorption/desorption cycle. The entire scope of this invention is not limited by the specific examples described herein, but is more readily understood with reference to the appended claims.

Data set [5] in a line: Equilibration and form conversion experiments of Compound of formula (V). The class given is physicochemical. As to conditions: form conversion studies. The method, then:
Equilibration: Equilibration studies using single, binary and ternary combinations of batch solvents (water, acetone, and acetonitrile) were investigated to mimic key steps in manufacturing 3-(4-nitro-1-oxoisoindolin-2-yl)piperidine-2,6-dione. Materials of 3-(4-nitro-1-oxoisoindolin-2-yl)piperidine-2,6-dione and solvent or solvent mixtures were added to a glass vial to achieve free-flowing slurry and allowed to equilibrate at the specified temperature. After equilibration for 8 days, the solid phase was separated via filtration. The solid phase was then dried under air and analyzed by XRPD. List of Experimental Conditions for Equilibration:
A total of four batches of 3-(4-nitro-1-oxoisoindolin-2-yl)piperidine-2,6-dione were characterized by XRPD, DSC, TGA, ATR-FTIR and DVS, as described in section 6.5. The solid form represented by the batch 1 was designated as Form A ({drug5b}); the solid form represented by the batch 4 was designated as Form B ({drug5c}); the batches 2 and 3 were determined to be mixtures of Forms A and B, with Form B ({drug5c}) dominating the patterns. The equilibration experiments were performed using batches 2, 3 and 4, and the results are described in Table 2. Results for Equilibration Experiments:
Results from Additional Form conversion Experiments: […]

The conditions of data set [6]: water; listed as free base.
Description: Hygroscopicity: Sorption/desorption isotherms were measured using the VT1100 humidity microbalance (VTI Corporation, Hialeah, FL, USA). Measurements were carried out at 25°C. Samples were dried under N2 flow at 25°C. […] Concentration in supernatant was measured by gravimetry for organic solvents and by HPLC from aqueous solvents and propylene glycol.
A further data set can be described thus: physchem. As to conditions: thermodynamic from solid.

In general, solubility refers to the concentration that dissolves in the medium under given conditions.

Counter-ions that a name gives are not always drawn. Like-named read-outs stand apart in the source and are kept apart here. Where only a bound is given, the exact number is not on record here.

As for `N#Cc1ccc([C@H]2CCc3cncn32)c(F)c1` [HCl, 4-(R)-(6,7-dihydro-5H-pyrrolo[1,2-c]imidazol-5-yl)-3-fluoro-benzonitrile, reference compound], the Moisture gain (r.h. 25%) is listed as 0.5%; the Moisture gain (r.h. 50%) is 0.2%; the Moisture gain (r.h. 75%) came to 0.2%; the Moisture gain (r.h. 85%) is on record as 3.3%; the Moisture gain (r.h. 95%) amounted to 23.6%.

As to `CC(C)(C)c1cc(C(C)(C)C)c(NC(=O)c2c[nH]c3ccccc3c2=O)cc1O` [Form G ({drug7e}), N-[2,4-bis(1,1-dimethylethyl)-5-hydroxyphenyl]-1,4-dihydro-4-oxoquinoline-3-carboxamide], in data set [1] (vacuum oven for one month), the “XRPD pattern after attempted desolvation” value was “became x-ray amorphous”.

Turning to Citric acid, the Hygroscopicity result in data set [2] is “Crystalline salt; hygroscopic at ambient temperature and relative humidity conditions. PXRD patterns of slurry and dried material did not match”; in data set [2] (listed as citric acid salt), “hygroscopic”.

As to `CC(C)(C)c1cc(C(C)(C)C)c(NC(=O)c2c[nH]c3ccccc3c2=O)cc1O` [Form H ({drug7f}), N-[2,4-bis(1,1-dimethylethyl)-5-hydroxyphenyl]-1,4-dihydro-4-oxoquinoline-3-carboxamide], the entries for the “XRPD pattern after attempted desolvation” value in data set [1] (ambient conditions for one month) and in data set [1] (vacuum oven for one month) were “same Form H” and “converted to a semi-crystalline form”, respectively.

On to `CC(C)(C)c1cc(C(C)(C)C)c(NC(=O)c2c[nH]c3ccccc3c2=O)cc1O` [Form K ({drug7i}), N-[2,4-bis(1,1-dimethylethyl)-5-hydroxyphenyl]-1,4-dihydro-4-oxoquinoline-3-carboxamide], for which the “XRPD pattern after attempted desolvation” value in data set [1] (ambient conditions and vacuum oven for 2 months) is recorded as “converted to a new crystalline form of Compound (VII) designated Form S”.

With `Cl` [Hydrochloric acid], the Hygroscopicity entry was “Crystalline salt; crystals were hygroscopic at ambient temperatures and relative humidity conditions; crystalline salt samples included multiple hydration states and multiple crystalline forms. Solid state NMR indicated that prepared samples contained mixture of crystalline phases” in data set [2]; “hygroscopic” in data set [2] (listed as hydrochloric acid salt).

Take `O=C1CCC(N2Cc3c(cccc3[N+](=O)[O-])C2=O)C(=O)N1` (centres unmarked) [Form C ({drug5d}), 3-(4-nitro-1-oxoisoindolin-2-yl)piperidine-2,6-dione]: the “XRPD Result after form conversion experiment” value (from here on “XRPD Result”) in data set [3] (Heated to 220 °C for 4 hours) is on record as “partially converts to Form A”. Moreover, in data set [3] (ambient temperature, NMP/acetone/water (1:2.5:2.5), time not stated), the Form conversion entry is recorded as “converts to Form A”. Moreover, the total mass change in data set [4] is given as 0.43%.

Consider `CC(C)(C)c1cc(C(C)(C)C)c(NC(=O)c2c[nH]c3ccccc3c2=O)cc1O` [Form L ({drug7j}), N-[2,4-bis(1,1-dimethylethyl)-5-hydroxyphenyl]-1,4-dihydro-4-oxoquinoline-3-carboxamide], for which the “XRPD pattern after attempted desolvation” value in data set [1] (ambient conditions for two weeks) is recorded as “same Form L”; in data set [1] (vacuum oven for 24 hours) it was “converted to x-ray amorphous”.

As for `CC(C)(C)c1cc(C(C)(C)C)c(NC(=O)c2c[nH]c3ccccc3c2=O)cc1O` [Form D ({drug7b}), N-[2,4-bis(1,1-dimethylethyl)-5-hydroxyphenyl]-1,4-dihydro-4-oxoquinoline-3-carboxamide], the “XRPD pattern after attempted desolvation” value in data set [1] (ambient conditions and vacuum oven for approximately 1 month) was “converted to a new crystalline form of Compound (VII) designated Form R”.

For the compound `O=C1CCC(N2Cc3c(cccc3[N+](=O)[O-])C2=O)C(=O)N1` (centres unmarked) [Form A ({drug5b}), 3-(4-nitro-1-oxoisoindolin-2-yl)piperidine-2,6-dione], the “Form conversion to other forms” value in data set [5] was “no conversion”. For the same compound, in data set [4], the total mass change was found to be 0.42%.

As to `NC1(C(=O)N[C@@H](CCO)c2ccc(Cl)cc2)CCN(c2ncnc3[nH]ccc23)CC1` [Form B, (S)-4-amino-N-(1-(4-chlorophenyl)-3-hydroxypropyl)-1-(7H-pyrrolo[2,3-d]pyrimidin-4-yl)piperidine-4-carboxamide], the “XRPD Result” value in data set [3] (Heated to 220 °C for 4 hours) is on record as “Form A”.

As to Fumaric acid, the “water content of samples” value in data set [2] (>25% relative humidity) is around 6 wt. %. The Hygroscopicity result in data set [2] was “hygroscopic at ambient temperature and relative humidity conditions”; in data set [2] (listed as fumaric acid salt), “hygroscopic”.

On to `NC1(C(=O)N[C@@H](CCO)c2ccc(Cl)cc2)CCN(c2ncnc3[nH]ccc23)CC1` [Form C, (S)-4-amino-N-(1-(4-chlorophenyl)-3-hydroxypropyl)-1-(7H-pyrrolo[2,3-d]pyrimidin-4-yl)piperidine-4-carboxamide], for which the “XRPD Result” value in data set [3] (Heated to 220 °C for 4 hours), in data set [3] (Slurry in NMP/Acetone/water at ambient for 5 days) and in data set [3] (Slurry in NMP/Acetone/water at ambient for 10 days) was “Form A+C” in each case.

For the compound `CC(C)(C)c1cc(C(C)(C)C)c(NC(=O)c2c[nH]c3ccccc3c2=O)cc1O` [Form E ({drug7c}), N-[2,4-bis(1,1-dimethylethyl)-5-hydroxyphenyl]-1,4-dihydro-4-oxoquinoline-3-carboxamide], in data set [1] (standing under ambient conditions and sitting in the vacuum oven), the “XRPD pattern after attempted desolvation” value is on record as “same XRPD patterns”.

For the compound `N#Cc1ccc([C@H]2CCc3cncn32)c(F)c1` [Compound (III), 4-(R)-(6,7-Dihydro-5H-pyrrolo[1,2-c]imidazol-5-yl)-3-fluoro-benzonitrile], the Moisture gain runs as follows: (r.h. 0%) 0.0%; (r.h. 5%) 0.0%; (r.h. 25%, listed as free base) 0.1%; (r.h. 50%, listed as free base) 0.2%; (r.h. 75%, listed as free base) 0.3%; (r.h. 85%, listed as free base) 0.5%. Further, the Moisture gain (r.h. 95%, listed as free base) is recorded as 1.0%. Moreover, the “Solubility in water at the 0.1% target concentration” value in data set [6] is “largely insoluble”. The solubility in the data set “physchem” (acetone, 25 °C, organic solvent or mixture) was above 50 mg/mL; in “physchem” (aqueous solvent, pH 1, 25 °C, pH 1, simulated gastric fluid, pH 1), above 50 mg/mL; in “physchem” (ethanol, 25 °C, organic solvent or mixture), above 50 mg/mL; in “physchem” (ethyl acetate, 25 °C, organic solvent or mixture), above 50 mg/mL.
